# According to the supplement of paper PMC12463676, “Small-molecule dissolution of stress granules by redox modulation benefits ALS models” (Nature Chemical Biology, 2025):
# Legend:
# potassium arsenate = compound: O=[As]([O-])(O)O.[K+] [potassium arsenate]; experiment: thermal stability z-score vs DMSO; higher = more thermally stabilized by treatment; conditions: HeLa; arsenate concentration 1 mM
# Procedure: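 Cellular thermal proteome profiling in HeLa cells treated with 1 mM arsenate for 1 h (DMSO pretreatment), heated to ten temperatures (37-66.3 °C). Soluble protein was quantified by TMT mass spectrometry relative to DMSO controls; the thermal stability score was transformed to a z-score; mean of n = 3 experiments.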
# lipoamide = compound: NC(=O)CCCCC1CCSS1 [lipoamide]; experiment: as above; conditions: HeLa, lipoamide concentration 100 µM
# Procedure: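 Cellular thermal proteome profiling in HeLa cells. Cells were treated with 100 µM lipoamide for 1 h, with or without 1 mM arsenate for a further 1 h, then heated to ten temperatures (37-66.3 °C), and soluble protein was quantified by TMT mass spectrometry relative to 0.1% DMSO controls. The thermal stability score (sum of log2 fold changes minus the abundance score) was transformed to a z-score; mean of n = 3 experiments.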
# [1] = arsenate co-treatment: 1 mM arsenate 1 h
# 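Further: each temperature applied for 3 min, abundance score taken as mean log2 fold change at the two lowest temperatures, z-score obtained by mean subtraction and division by SD.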
# Chain of UniProt Q02750 (Q02750 whole entry): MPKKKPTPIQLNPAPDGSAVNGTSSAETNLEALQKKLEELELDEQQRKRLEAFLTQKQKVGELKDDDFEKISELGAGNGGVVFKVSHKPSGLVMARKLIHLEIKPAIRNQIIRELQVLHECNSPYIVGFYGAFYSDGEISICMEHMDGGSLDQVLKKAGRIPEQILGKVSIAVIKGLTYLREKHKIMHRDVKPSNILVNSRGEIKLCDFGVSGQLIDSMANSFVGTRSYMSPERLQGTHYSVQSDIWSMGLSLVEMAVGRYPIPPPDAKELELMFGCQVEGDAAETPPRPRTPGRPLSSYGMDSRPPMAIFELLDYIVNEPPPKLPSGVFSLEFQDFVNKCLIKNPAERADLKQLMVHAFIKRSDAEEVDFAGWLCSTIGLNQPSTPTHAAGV
# Chain of UniProt O43399 (O43399 whole entry): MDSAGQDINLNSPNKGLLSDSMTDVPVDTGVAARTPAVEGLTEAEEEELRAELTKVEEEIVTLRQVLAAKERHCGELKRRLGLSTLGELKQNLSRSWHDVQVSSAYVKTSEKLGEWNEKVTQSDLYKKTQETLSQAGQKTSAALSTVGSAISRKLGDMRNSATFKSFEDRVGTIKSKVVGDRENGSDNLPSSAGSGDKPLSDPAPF
# Chain of UniProt P52701 (P52701 whole entry): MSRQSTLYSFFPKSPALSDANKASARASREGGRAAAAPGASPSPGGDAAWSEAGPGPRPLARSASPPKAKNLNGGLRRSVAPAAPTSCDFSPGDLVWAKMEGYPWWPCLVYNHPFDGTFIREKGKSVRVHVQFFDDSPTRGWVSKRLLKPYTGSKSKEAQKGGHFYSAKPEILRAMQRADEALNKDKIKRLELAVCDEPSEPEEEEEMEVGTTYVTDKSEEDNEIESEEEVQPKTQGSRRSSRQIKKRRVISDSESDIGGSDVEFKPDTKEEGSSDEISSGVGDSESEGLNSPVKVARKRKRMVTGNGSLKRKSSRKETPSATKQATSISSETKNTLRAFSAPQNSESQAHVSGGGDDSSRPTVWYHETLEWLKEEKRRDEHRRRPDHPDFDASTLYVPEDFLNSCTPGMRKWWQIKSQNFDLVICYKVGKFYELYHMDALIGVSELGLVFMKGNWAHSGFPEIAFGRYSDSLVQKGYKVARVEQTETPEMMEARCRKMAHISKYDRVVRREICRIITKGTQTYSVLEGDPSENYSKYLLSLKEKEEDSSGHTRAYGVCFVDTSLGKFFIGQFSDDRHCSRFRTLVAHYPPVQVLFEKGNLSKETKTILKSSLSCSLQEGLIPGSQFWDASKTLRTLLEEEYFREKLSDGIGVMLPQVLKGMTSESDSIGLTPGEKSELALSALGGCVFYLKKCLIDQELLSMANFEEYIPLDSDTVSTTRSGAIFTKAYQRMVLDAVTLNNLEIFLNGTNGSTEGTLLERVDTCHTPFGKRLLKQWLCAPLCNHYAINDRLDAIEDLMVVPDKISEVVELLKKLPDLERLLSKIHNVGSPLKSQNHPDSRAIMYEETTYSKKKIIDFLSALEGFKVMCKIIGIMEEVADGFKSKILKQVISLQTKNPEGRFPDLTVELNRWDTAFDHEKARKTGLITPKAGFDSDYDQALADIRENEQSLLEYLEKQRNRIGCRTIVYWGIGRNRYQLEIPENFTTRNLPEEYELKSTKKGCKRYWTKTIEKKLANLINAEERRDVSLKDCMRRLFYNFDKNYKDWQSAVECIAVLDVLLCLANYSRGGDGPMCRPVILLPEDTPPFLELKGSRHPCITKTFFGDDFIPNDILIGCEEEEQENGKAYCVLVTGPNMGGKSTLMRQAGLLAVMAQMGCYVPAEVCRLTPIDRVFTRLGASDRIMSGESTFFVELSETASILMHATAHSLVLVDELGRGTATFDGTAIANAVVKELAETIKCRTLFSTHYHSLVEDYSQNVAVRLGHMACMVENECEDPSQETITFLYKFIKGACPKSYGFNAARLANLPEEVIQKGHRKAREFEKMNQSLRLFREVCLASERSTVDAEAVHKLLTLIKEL
# Chain of UniProt P06132 (P06132 whole entry): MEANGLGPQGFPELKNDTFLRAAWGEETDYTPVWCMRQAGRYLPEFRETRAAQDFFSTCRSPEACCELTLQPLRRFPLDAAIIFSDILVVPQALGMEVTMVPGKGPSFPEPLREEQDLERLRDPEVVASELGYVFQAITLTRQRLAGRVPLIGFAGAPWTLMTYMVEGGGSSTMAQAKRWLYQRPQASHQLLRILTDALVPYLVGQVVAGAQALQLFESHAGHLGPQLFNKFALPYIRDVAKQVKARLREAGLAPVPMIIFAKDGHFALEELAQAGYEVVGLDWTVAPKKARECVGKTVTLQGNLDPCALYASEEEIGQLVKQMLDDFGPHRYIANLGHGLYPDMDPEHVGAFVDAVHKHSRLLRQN
# Chain of UniProt Q9H3H5 (Q9H3H5 whole entry): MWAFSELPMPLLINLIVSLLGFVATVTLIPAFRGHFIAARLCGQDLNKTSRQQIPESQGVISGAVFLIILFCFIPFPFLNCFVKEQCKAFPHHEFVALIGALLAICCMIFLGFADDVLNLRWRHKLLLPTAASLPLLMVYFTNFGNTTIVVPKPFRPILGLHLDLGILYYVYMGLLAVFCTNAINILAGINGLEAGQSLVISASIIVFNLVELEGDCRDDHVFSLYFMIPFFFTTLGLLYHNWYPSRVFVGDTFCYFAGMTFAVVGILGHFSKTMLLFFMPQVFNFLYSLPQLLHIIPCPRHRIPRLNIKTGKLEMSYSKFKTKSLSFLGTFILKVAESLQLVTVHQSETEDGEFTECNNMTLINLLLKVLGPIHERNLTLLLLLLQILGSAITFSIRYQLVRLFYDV
# Chain of UniProt Q8NB90 (Q8NB90 whole entry): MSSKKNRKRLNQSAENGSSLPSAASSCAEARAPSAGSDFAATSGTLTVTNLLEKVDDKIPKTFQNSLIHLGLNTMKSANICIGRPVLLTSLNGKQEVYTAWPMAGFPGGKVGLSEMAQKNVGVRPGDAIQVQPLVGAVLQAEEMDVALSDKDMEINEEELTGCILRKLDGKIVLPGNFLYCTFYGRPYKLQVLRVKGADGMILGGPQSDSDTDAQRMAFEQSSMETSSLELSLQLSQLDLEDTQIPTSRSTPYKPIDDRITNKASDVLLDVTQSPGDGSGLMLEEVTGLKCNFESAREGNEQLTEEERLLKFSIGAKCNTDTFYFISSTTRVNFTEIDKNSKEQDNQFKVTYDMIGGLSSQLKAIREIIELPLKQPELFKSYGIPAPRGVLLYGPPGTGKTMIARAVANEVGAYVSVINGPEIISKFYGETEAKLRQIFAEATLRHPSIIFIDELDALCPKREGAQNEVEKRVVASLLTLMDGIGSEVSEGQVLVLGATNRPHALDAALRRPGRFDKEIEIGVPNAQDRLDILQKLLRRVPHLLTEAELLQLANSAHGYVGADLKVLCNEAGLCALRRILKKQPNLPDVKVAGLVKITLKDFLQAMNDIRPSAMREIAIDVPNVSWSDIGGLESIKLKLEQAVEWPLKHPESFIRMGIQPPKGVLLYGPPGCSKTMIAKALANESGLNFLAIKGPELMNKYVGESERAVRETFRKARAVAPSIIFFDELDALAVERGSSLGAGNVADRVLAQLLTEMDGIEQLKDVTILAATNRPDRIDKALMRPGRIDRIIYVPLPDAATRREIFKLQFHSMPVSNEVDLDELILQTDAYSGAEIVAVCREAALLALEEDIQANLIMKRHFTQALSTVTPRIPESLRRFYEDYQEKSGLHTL
# Chain of UniProt P57737 (P57737 whole entry): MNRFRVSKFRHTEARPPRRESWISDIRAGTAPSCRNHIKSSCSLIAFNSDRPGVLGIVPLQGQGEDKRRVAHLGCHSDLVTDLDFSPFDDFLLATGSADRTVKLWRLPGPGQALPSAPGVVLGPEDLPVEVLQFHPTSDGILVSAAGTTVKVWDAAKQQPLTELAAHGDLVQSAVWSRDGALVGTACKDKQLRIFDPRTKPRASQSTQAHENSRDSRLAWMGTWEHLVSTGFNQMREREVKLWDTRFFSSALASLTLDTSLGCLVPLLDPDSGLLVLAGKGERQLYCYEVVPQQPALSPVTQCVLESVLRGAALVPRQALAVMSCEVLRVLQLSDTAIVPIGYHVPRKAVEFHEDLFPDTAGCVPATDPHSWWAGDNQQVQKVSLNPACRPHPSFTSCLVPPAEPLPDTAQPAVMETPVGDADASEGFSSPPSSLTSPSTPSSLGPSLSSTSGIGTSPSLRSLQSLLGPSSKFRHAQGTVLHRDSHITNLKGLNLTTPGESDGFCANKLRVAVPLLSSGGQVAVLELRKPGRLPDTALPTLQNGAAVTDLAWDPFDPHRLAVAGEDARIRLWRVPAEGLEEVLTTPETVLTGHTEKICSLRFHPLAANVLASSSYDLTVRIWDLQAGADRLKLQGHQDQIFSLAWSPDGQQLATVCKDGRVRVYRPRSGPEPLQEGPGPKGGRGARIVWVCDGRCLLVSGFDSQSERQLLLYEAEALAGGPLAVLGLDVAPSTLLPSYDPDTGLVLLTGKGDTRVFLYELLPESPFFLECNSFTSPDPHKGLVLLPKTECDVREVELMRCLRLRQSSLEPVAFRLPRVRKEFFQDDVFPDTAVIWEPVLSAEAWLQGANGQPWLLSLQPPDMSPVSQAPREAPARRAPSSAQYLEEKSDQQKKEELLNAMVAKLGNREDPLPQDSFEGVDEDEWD
# Chain of UniProt O15127 (O15127 whole entry): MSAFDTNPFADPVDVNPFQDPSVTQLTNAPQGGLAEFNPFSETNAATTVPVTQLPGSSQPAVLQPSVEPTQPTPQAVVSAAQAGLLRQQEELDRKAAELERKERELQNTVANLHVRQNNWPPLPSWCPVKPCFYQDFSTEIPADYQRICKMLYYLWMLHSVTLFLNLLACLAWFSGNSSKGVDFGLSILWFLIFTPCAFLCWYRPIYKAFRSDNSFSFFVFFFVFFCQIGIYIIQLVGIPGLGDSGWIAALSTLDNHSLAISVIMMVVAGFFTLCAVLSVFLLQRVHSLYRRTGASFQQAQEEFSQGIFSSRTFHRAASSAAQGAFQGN
# Chain of UniProt P55769 (P55769 whole entry): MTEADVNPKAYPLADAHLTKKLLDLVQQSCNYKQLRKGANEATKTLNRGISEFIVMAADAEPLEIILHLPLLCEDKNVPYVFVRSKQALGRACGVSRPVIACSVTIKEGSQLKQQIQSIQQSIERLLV
Target,thermal stability z-score (potassium arsenate),thermal stability z-score (lipoamide; [1]),thermal stability z-score (lipoamide; arsenate co-treatment: none)
TMSB10 (UniProt P63313),0.014,0.8,0.288
KIAA1033 (UniProt Q2M389),-0.0284,-0.344,-0.193
RB1 (UniProt P06400),-0.64,0.306,0.229
STT3B (UniProt Q8TCJ2),0.646,-3.41,-2.66
RFX5 (UniProt P48382),0.132,0.562,0.613
MAP2K1 (UniProt Q02750),-0.118,-0.382,-0.187
CIZ1 (UniProt Q9ULV3),-0.0848,0.0439,-0.505
G6PD (UniProt P11413),0.535,0.218,0.206
EVL (UniProt Q9UI08),-0.462,-0.0697,0.187
BCKDK (UniProt O14874),0.935,0.0555,-0.559
SSBP1 (UniProt Q04837),1.94,1.55,0.76
RABGAP1 (UniProt Q9Y3P9),0.318,-0.333,-0.253
CTIF (UniProt O43310),0.233,-0.164,0.404
SP3 (UniProt Q02447),-0.584,-0.177,-0.427
TXNDC11 (UniProt Q6PKC3),0.425,-0.797,-0.984
PPP4R3A (UniProt Q6IN85),-0.165,0.268,0.184
ATAD3B (UniProt Q5T9A4),0.607,-0.338,-0.0604
RAB3D (UniProt O95716),0.692,0.635,1.07
GNPTAB (UniProt Q3T906),-0.467,-2.42,-1.66
ERGIC1 (UniProt Q969X5),0.483,-1.39,-1.4
SNAPC1 (UniProt Q16533),0.0437,-0.175,-0.207
CWF19L2 (UniProt Q2TBE0),-0.098,0.0402,-0.0633
RBM14 (UniProt Q96PK6),-0.803,-0.169,-0.0944
IFT27 (UniProt Q9BW83),0.151,0.856,0.225

Target,thermal stability z-score (potassium arsenate),thermal stability z-score (lipoamide; [1]),thermal stability z-score (lipoamide; arsenate co-treatment: none)
M6PR (UniProt P20645),0.167,0.401,-0.0131
VAMP8 (UniProt Q9BV40),0.587,1.3,1.28
PRPF18 (UniProt Q99633),-0.321,-0.378,0.186
RPL30 (UniProt P62888),-0.666,0.771,0.183
RALY (UniProt Q9UKM9),0.00385,0.0855,-0.0305
ERLIN1 (UniProt O75477),-1.15,-3.16,-2.57
RNF5 (UniProt Q99942),-0.145,-0.0839,0.142
UBA52 (UniProt P62987),-0.00358,1.26,1.15
CTPS2 (UniProt Q9NRF8),0.109,0.218,-0.0335
MMS19 (UniProt Q96T76),-0.949,-0.784,-1.16
HPD (UniProt P32754),1.61,0.25,0.117
SMU1 (UniProt Q2TAY7),0.656,-0.141,-0.0867
SPATA5 (UniProt Q8NB90),-0.0295,0.389,0.148
PPP1R12A (UniProt O14974),0.979,1.32,0.52
CLPB (UniProt Q9H078),-0.0952,-0.507,-0.275
MSH6 (UniProt P52701),-0.142,0.0377,0.218
RPS6KB1 (UniProt P23443),0.138,-0.0619,0.679
SCAMP2 (UniProt O15127),-1.4,0.21,-0.804
IARS2 (UniProt Q9NSE4),-0.455,-0.232,0.259
SMARCAD1 (UniProt Q9H4L7),-0.159,-1.27,-0.234
FAF2 (UniProt Q96CS3),-0.262,-0.435,-0.684
XRCC6 (UniProt P12956),-0.634,-0.75,0.0871
SMC3 (UniProt Q9UQE7),-0.181,0.0797,0.288
CEP97 (UniProt Q8IW35),-0.411,-0.477,0.495

Target,thermal stability z-score (potassium arsenate),thermal stability z-score (lipoamide; [1]),thermal stability z-score (lipoamide; arsenate co-treatment: none)
MRPL4 (UniProt Q9BYD3),-0.138,-0.319,-0.59
PGP (UniProt A6NDG6),-0.245,0.339,-0.0409
MAP7D1 (UniProt Q3KQU3),-0.702,0.172,-0.0726
TPD52L2 (UniProt O43399),0.621,1.01,1.19
DPAGT1 (UniProt Q9H3H5),-0.109,-0.304,0.836
MAPK9 (UniProt P45984),-0.98,0.00773,-0.817
AASDHPPT (UniProt Q9NRN7),-0.589,0.269,0.269
NOTCH1 (UniProt P46531),-0.0336,0.143,0.13
KANK1 (UniProt Q14678),0.739,0.282,0.616
ALAD (UniProt P13716),0.112,0.313,0.885
HMGN2 (UniProt P05204),0.0894,1.04,0.752
PSAT1 (UniProt Q9Y617),-0.653,0.659,0.402
GRAMD1B (UniProt Q3KR37),-0.00294,-0.102,0.0763
SLC16A1 (UniProt P53985),0.385,0.774,1.02
ADCY9 (UniProt O60503),0.26,0.368,0.853
CORO7 (UniProt P57737),-0.177,0.188,0.174
ASH2L (UniProt Q9UBL3),-1.84,0.566,-0.319
CXORF38 (UniProt Q8TB03),-1.87,0.486,0.307
UROD (UniProt P06132),-0.0518,0.0739,0.0184
RPL23A (UniProt P62750),-1.49,-0.321,-0.341
TFIP11 (UniProt Q9UBB9),-0.187,-0.0949,-0.0621
ECSIT (UniProt Q9BQ95),-0.207,0.434,-0.221
SNU13 (UniProt P55769),1.62,-0.119,0.0598
